# Test results published in ChEMBL document CHEMBL4680214, “Fluorinated derivatives of 2-phenyl-3-hydroxy-4(1H)-quinolinone as tubulin polymerization inhibitors” (Eur J Med Chem, 2020).
# Active and inactive are the calls of the source. The calls are words filed in the database; no cut-off is given here.
# Legend:
# HCT-116 [1] = test: Cell cycle arrest in human HCT-116 cells assessed as BrU incorporation at 5 times IC50 measured after 24 hrs by propidium iodide/immunostaining based flow cytometry (reference value: 54.0%); type: functional
# CCRF-CEM [2] = test: Cell cycle arrest in human CCRF-CEM cells assessed as phosphorylation of histone H3 at Ser10 at IC50 measured after 24 hrs by propidium iodide staining based flow cytometry (reference value: 2.0%); type: functional
# HCT-116 [3] = test: Cell cycle arrest in human HCT-116 cells assessed as accumulation at G2/M phase at 5 times IC50 measured after 24 hrs by propidium iodide staining based flow cytometry (reference value: 27.0%); type: functional
# CCRF-CEM [4] = test: Cell cycle arrest in human CCRF-CEM cells assessed as accumulation at G2/M phase at IC50 measured after 24 hrs by propidium iodide staining based flow cytometry (reference value: 22.6%); type: functional
# Tubulin (Homo sapiens) = Tubulin (Homo sapiens) (UniProt P68371+Q9H4B7+P0DPH7+P68366+Q13509+Q71U36+P04350+Q3ZCM7+P07437+P68363+Q9BQE3+Q6PEY2+Q13885+Q9BVA1+Q9BUF5); test: Induction of microtubule depolymerization in human HCT-116 cells assessed as appearance of abnormal mitotic spindle morphology at 5 times IC50 after 24 hrs by DAPI staining based immunofluorescence analysis; type: cell-based
# CCRF-CEM [5] = test: Cell cycle arrest in human CCRF-CEM cells assessed as accumulation at G0/G1 phase at IC50 measured after 24 hrs by propidium iodide staining based flow cytometry (reference value: 35.2%); type: functional
# HCT-116 [6] = test: Cell cycle arrest in human HCT-116 cells assessed as BrdU incorporation at 5 times IC50 measured after 24 hrs by propidium iodide/immunostaining based flow cytometry (reference value: 48.6%); type: functional
# CCRF-CEM [7] = test: Cell cycle arrest in human CCRF-CEM cells assessed as BrU incorporation at IC50 measured after 24 hrs by propidium iodide/immunostaining based flow cytometry (reference value: 52.2%); type: functional
# HCT-116 [8] = test: Cell cycle arrest in human HCT-116 cells assessed as BrU incorporation at IC50 measured after 24 hrs by propidium iodide/immunostaining based flow cytometry (reference value: 54.0%); type: functional
# CCRF-CEM [9] = test: Cell cycle arrest in human CCRF-CEM cells assessed as increase in Bax expression at 2 times IC50 measured after 24 hrs by Western blot analysis; type: functional, cell-based
smiles,measurement,setting,value
O=c1c(O)c(-c2ccccc2)[nH]c2cc(F)c(Sc3ccccc3)cc12,Activity,HCT-116 [1],63.9%
same,Activity,CCRF-CEM [2],9.4%
same,Activity,HCT-116 [3],64.1%
same,Activity,CCRF-CEM [4],41.5%
same,Activity,Tubulin (Homo sapiens),Active
same,Activity,CCRF-CEM [5],1.8%
same,Activity,HCT-116 [6],41.6%
same,Activity,CCRF-CEM [7],67.4%
same,Activity,HCT-116 [8],65.4%
same,Activity,CCRF-CEM [9],Active
